Like-named read-outs stand apart in the source and are kept apart here.
Tests used:
Hs294T = experiment: Growth inhibition assay (SRB assay), melanoma cell line Hs294T; type: cell-based, human; conditions: 72 h, mean ± SD
Procedure: (§1) Three human cancer cell lines were used to evaluate the antiproliferative activity of the obtained compounds: melanoma cell line Hs294T, pancreatic tumor cell line MIA PaCa-2, and lung tumor cell line NCI-H1581. The normal mouse fibroblasts cell line (BALB/3T3 clone A31) was selected as reference. All these lines were purchased from the ATCC (American Type Culture Collection, Rockville, MD, USA). NCI-H1581 cells were grown in RPMI 1640 with GlutaMax medium (Gibco, Thermo Fisher Scientific, Leicestershire, UK) with 5% fetal bovine serum (FBS; HyClone, GE Healthcare, Logan, UT, USA). Hs294T and BALB/3T3 cells were grown in Dulbecco’s Modified Eagle Medium (DMEM; Gibco, Thermo Fisher Scientific, Leicestershire, UK) supplemented with 2 mM L-glutamine and 10% FBS (HyClone, GE Healthcare, Logan, UT, USA). MIA PaCa-2 cells were grown in DMEM (Gibco, Thermo Fisher Scientific, Leicestershire, UK) supplemented with 2 mM L-glutamine, 2.5% Horse Serum (Gibco, Thermo Fisher Scientific, Leicestershire, UK), and 10% FBS (HyClone, GE Healthcare, Logan, UT, USA). All culture media were supplemented with antibiotics: 100 U/mL penicillin (Polfa Tarchomin SA, Warsaw, Poland) and 100 µg/mL streptomycin (Sigma-Aldrich Chemie GmbH, Steinheim, Germany); cells were grown at 37 °C in a humid atmosphere with 5% CO2.
(§2) Twenty-four hours prior to the addition of the tested compounds, 2000 cells per well of Balb/3T3, MIA PaCa-2, and Hs294T cell lines and 2500 cells of NCI-H1581 cell line were seeded in 384-well plates (Greiner Bio-One, Kremsmünster, Austria) in an appropriate medium. The studied compounds were added to the cells at 8 different concentrations in a series of dilutions from 100 to 0.00001 µg/mL for 72 h. Cisplatin was applied as a reference compound (Teva Pharmaceuticals, Warsaw, Poland). DMSO (Sigma-Aldrich Chemie GmbH, Steinheim, Germany) was used as solvent control. The DMSO concentrations corresponded to the solvent concentrations in the tested compound solutions. Then, 30 µL per well of ice-cold 50% TCA (trichloroacetic acid, Avantor, Gliwice, Poland) was added to the cells. After one hour of incubation at room temperature (RT) cells were washed five times with water and stained with 0.4% SRB (sulforhodamine B, Sigma-Aldrich Chemie GmbH, Steinheim, Germany). Twenty-five microliters per well of 0.4% solution of SRB in 1% acetic acid (Avantor, Gliwice, Poland) was applied. After 0.5 h of incubation at RT, the unbound dye was washed out with 1% acetic acid. The bound dye in each well was dissolved in 70 µl of 10 mM TRIS (Tris base, Sigma-Aldrich, Chemie GmbH, Steinheim, Germany). A microplate reader (BioTek Synergy H4, Swindon, UK) with Gen5 software was used to read the absorbance at 540 nm. The results are presented as mean IC50 values (concentration of the compound that inhibits cell proliferation by 50%) ± standard deviation. Half-maximal inhibitory concentration (IC50) values were calculated using the Prolab-3 system based on Cheburator 0.4 [22]. Each experiment was performed in triplicate, and three independent repetitions were made for each experiment. Raw data and IC50 values were placed in the supplementary materials.

MIA PaCa-2 = experiment: Growth inhibition assay (SRB assay), pancreatic tumor cell line MIA PaCa-2; type: cell-based, human; conditions: mean ± SD
Procedure: as §1, §2

NCI-H1581 = experiment: Growth inhibition assay (SRB assay), lung tumor cell line NCI-H1581; type: cell-based, human; conditions: for SI (Selectivity Index): SI = IC50 for normal cell line BALB/3T3 / IC50 for NCI-H1581
Procedure: as §1, §2

BALB/3T3 clone A31 = experiment: Growth inhibition assay (SRB assay), normal fibroblasts BALB/3T3 clone A31; type: cell-based, mouse; conditions: mean ± SD
Procedure: as §1, §2

[1] = Homo sapiens, Hs 294T, read-out: IC50 Hs294T
[2] = Homo sapiens, Hs 294T, supplement, read-out: IC50 Hs294T (raw data)
[3] = Homo sapiens, MIA PaCa-2, 72 h, read-out: IC50 MIA PaCa-2
[4] = Homo sapiens, MIA PaCa-2, supplement, 72 h, read-out: IC50 MIA PaCa-2 (raw data)
[5] = Homo sapiens, NCI-H1581, 72 h, 72 h, SRB, mean ± SD, read-out: IC50 NCI-H1581
[6] = Homo sapiens, NCI-H1581, 72 h, supplement, 72 h, SRB, mean ± SD, read-out: IC50 NCI-H1581 (raw data)
[7] = Mus musculus, BALB/3T3 clone A31, 72 h, normal cell line, read-out: IC50 BALB3T3
[8] = Mus musculus, BALB/3T3 clone A31, 72 h, supplement, read-out: IC50 BALB3T3 (raw data)

Structure (SMILES) | SI (Selectivity Index) (NCI-H1581) | IC50 (Hs294T; [1]) [µM] | IC50 (Hs294T; [2]) | IC50 (MIA PaCa-2; [3]) [µM] | IC50 (MIA PaCa-2; [4]) | IC50 (NCI-H1581; [5]) [µM] | IC50 (NCI-H1581; [6]) | IC50 (BALB/3T3 clone A31; [7]) [µM] | IC50 (BALB/3T3 clone A31; [8]) | also measured
N.N.[Cl][Pt][Cl] [Cisplatin, reference compound] | 0.3 | – | – | – | – | – | – | – | – | IC50 (Hs294T; read-out: IC50 Hs294T): 1.3 ± 0.5 µM; IC50 Hs294T (raw data) (Hs294T; supplement): 0.39 ± 0.15 µg/mL; IC50 (MIA PaCa-2; 72 h, read-out: IC50 MIA PaCa-2): 12.6 ± 3.13 µM; IC50 MIA PaCa-2 (raw data) (MIA PaCa-2; supplement, 72 h): 3.79 ± 0.94 µg/mL; IC50 (NCI-H1581; 72 h, SRB, mean ± SD, listed as cisplatin, read-out: IC50 NCI-H1581): 7.3 µM; IC50 (NCI-H1581; 72 h, SRB, mean ± SD, read-out: IC50 NCI-H1581): 7.27 ± 2.83 µM; IC50 NCI-H1581 (raw data) (NCI-H1581; supplement, 72 h, SRB, mean ± SD): 2.18 ± 0.85 µg/mL; IC50 (BALB/3T3 clone A31; 72 h, normal cell line, read-out: IC50 BALB3T3): 1.83 ± 0.7 µM; IC50 BALB3T3 (raw data) (BALB/3T3 clone A31; supplement, 72 h): 0.55 ± 0.21 µg/mL
C[C@@H](c1ccccc1)N1C[C@H](n2cc(CN(Cc3cn([C@H]4CN([C@@H](C)c5ccccc5)[C@H]5CC[C@@H]4C5)nn3)Cc3cn([C@H]4CN([C@@H](C)c5ccccc5)[C@H]5CC[C@@H]4C5)nn3)nn2)[C@@H]2CC[C@H]1C2 [Compound 19, N,N,N-tris((1-((1S,4R,5R)-2-((S)-1-phenylethyl)-2-azabicyclo[3.2.1]octan-4-yl)-1H-1,2,3-triazol-4-yl)methyl) amine] | – | 29.1 ± 1.36 | 26.2 ± 1.22 µg/mL | 31.8 ± 2.31 | 28.7 ± 2.08 µg/mL | 3.27 ± 0.42 | 2.94 ± 0.38 µg/mL | 27.7 ± 3.24 | 24.9 ± 2.92 µg/mL | –
C[C@@H](c1ccccc1)N1C[C@@H](n2cc(CCCc3cn([C@@H]4CN([C@@H](C)c5ccccc5)[C@H]5CC[C@@H]4C5)nn3)nn2)[C@@H]2CC[C@H]1C2 [Compound 10, 1,3-Bis-(1-((1S,4S,5R)-2-((S)-1-phenylethyl)-2-azabicyclo[3.2.1]octan-4-yl)-1H-1,2,3-triazol-4-yl) propane] | 3 | 10.3 ± 3.39 | 6.26 ± 2.05 µg/mL | 40.2 ± 1.6 | 24.3 ± 0.97 µg/mL | 4.2 ± 0.36 | 2.54 ± 0.22 µg/mL | 11.8 ± 5.03 | 7.17 ± 3.04 µg/mL | –
C[C@@H](c1ccccc1)N1C[C@H](n2cc(-c3cccc(-c4cn([C@H]5CN([C@@H](C)c6ccccc6)[C@H]6CC[C@@H]5C6)nn4)c3)nn2)[C@@H]2CC[C@H]1C2 [Compound 17, 1,3-Bis-(1-((1S,4R,5R)-2-((S)-1-phenylethyl)-2-azabicyclo[3.2.1]octan-4-yl)-1H-1,2,3-triazol-4-yl) benzene] | – | > 100 | > 100 µM | > 100 | > 100 µM | > 100 | > 100 µM | > 100 | > 100 µM | IC50 (Hs294T; Homo sapiens, Hs 294T, supplement, read-out: IC50 Hs294T (non-rounded data)): > 100 µM; IC50 (MIA PaCa-2; Homo sapiens, MIA PaCa-2, supplement, 72 h, read-out: IC50 MIA PaCa-2 (non-rounded data)): > 100 µM; IC50 (NCI-H1581; Homo sapiens, NCI-H1581, 72 h, supplement, 72 h, SRB, mean ± SD, read-out: IC50 NCI-H1581 (non-rounded data)): > 100 µM; IC50 (BALB/3T3 clone A31; Mus musculus, BALB/3T3 clone A31, 72 h, supplement, read-out: IC50 BALB3T3 (non-rounded data)): > 100 µM
C[C@@H](c1ccccc1)N1C[C@@H](n2cc(CN)nn2)[C@@H]2CC[C@H]1C2 [Compound 3, (1-((1S,4S,5R)-2-((S)-1-phenylethyl)-2-azabicyclo[3.2.1]octan-4-yl)-1H-1,2,3-triazol-4-yl)methanamine] | 8 | 88.5 ± 9.41 | 27.6 ± 2.93 µg/mL | 99.9 ± 4.46 | 31.1 ± 1.39 µg/mL | 11.3 ± 1.25 | 3.51 ± 0.39 µg/mL | 94.4 ± 1.89 | 29.4 ± 0.59 µg/mL | –
C[C@@H](c1ccccc1)N1C[C@@H](n2cc(-c3cccc(N)c3)nn2)[C@@H]2CC[C@H]1C2 [Compound 6, 3-(1-((1S,4S,5R)-2-((S)-1-phenylethyl)-2-azabicyclo[3.2.1]octan-4-yl)-1H-1,2,3-triazol-4-yl)aniline] | 2.5 | 74.5 ± 14.9 | 27.8 ± 5.58 µg/mL | 84.4 ± 1.04 | 31.5 ± 0.39 µg/mL | 30.8 ± 3.51 | 11.5 ± 1.31 µg/mL | 77.1 ± 1.1 | 28.8 ± 0.41 µg/mL | –
C[C@@H](c1ccccc1)N1C[C@@H](n2cc(COCc3ccccc3)nn2)[C@@H]2CC[C@H]1C2 [Compound 8, (1S,4S,5R)-4-(4-((benzyloxy)methyl)-1H-1,2,3-triazol-1-yl)-2-((S)-1-phenylethyl)-2-azabicyclo[3.2.1]octane] | 4 | 73.8 ± 10.1 | 29.7 ± 4.07 µg/mL | 79.12 ± 0.5 | 31.85 ± 0.2 µg/mL | 15.48 ± 0.12 | 6.23 ± 0.05 µg/mL | 61.5 ± 3.28 | 24.7 ± 1.32 µg/mL | –
C=CC(=O)OCc1cn([C@H]2CN([C@@H](C)c3ccccc3)[C@H]3CC[C@@H]2C3)nn1 [Compound 5, (1-((1S,4R,5R)-2-((S)-1-phenylethyl)-2-azabicyclo[3.2.1]octan-4-yl)-1H-1,2,3-triazol-4-yl)methyl acrylate] | 1.5 | 72.8 ± 9.71 | 26.7 ± 3.56 µg/mL | 86.31 ± 0.35 | 31.63 ± 0.13 µg/mL | 18.8 ± 4.45 | 6.88 ± 1.63 µg/mL | 28.5 ± 22.7 | 10.5 ± 8.31 µg/mL | –
C[C@@H](c1ccccc1)N1C[C@@H](n2cc(COCc3cn([C@@H]4CN([C@@H](C)c5ccccc5)[C@H]5CC[C@@H]4C5)nn3)nn2)[C@@H]2CC[C@H]1C2 [Compound 12, (1S,1′S,4S,4′S,5R,5′R)-4,4′-(4,4′-(oxybis(methylene))bis(1H-1,2,3-triazole-4,1-diyl))bis(2-((S)-1-phenylethyl)-2-azabicyclo[3.2.1]octane)] | 7 | 32.4 ± 7.83 | 19.7 ± 4.75 µg/mL | 51.5 ± 1.6 | 31.2 ± 0.97 µg/mL | 6 ± 0.86 | 3.64 ± 0.52 µg/mL | 44.4 ± 7.5 | 26.9 ± 4.55 µg/mL | –
